Data set [1] can be described thus: ChromLogD pH7.4 (chromatographic hydrophobicity index), PFI, LLE. As to conditions: for PFI: ChromLogDpH7.4 + no. aromatic rings; for chromatographic logD: pH 7.4. An excerpt: [23] Alongside PFI, LLE (ligand lipophilic efficiency, T. cruzi pIC50 - ChromLogDpH7.4) was also monitored to identify changes where the impact on potency was not driven by increasing lipophilicity.

For data set [2], the system named is intracellular T. cruzi amastigotes. In words: T. cruzi intracellular potency assay (high content imaging). The format is cell-based, Trypanosoma cruzi. Details: key to Max Effect (T. cruzi): % inhibition; 0% = DMSO control, 100% = 16 μM nifurtimox control. As to conditions: for IC50 / EC50 / Emax: Trypanosoma cruzi; for IC50: intracellular amastigotes in Vero cells, 96 h, mean of N ≥ 3, read-out: T. cruzi pIC50 (converted); for Hill slope (T. cruzi) / Max Effect (T. cruzi) / pEC50 (T. cruzi) / EC50 / Emax: individual replicate; for EC50: read-out: pEC50 (T. cruzi) (converted); for Emax: read-out: Max Effect (T. cruzi). The method, then: (§1) T. cruzi intracellular potency and rate-of-kill assay (high content imaging) ^1
(§2) Silvio X10/7 T. cruzi trypomastigotes were incubated at 37°C 5% CO2 with 1.6×10^7 Vero cells overnight at MOI10 in MEM media supplemented with 10% foetal calf serum (FCS). Extracellular parasites were removed by aspirating cell culture supernatant, and washing Vero monolayer with 10 ml serum-free MEM three times. Vero cells were then harvested by trypsinization and dispensed at 2×10^3 per well (50 μl in MEM/ 1% FCS) into 384 well plates pre-stamped with compounds in DMSO using automated washer/ dispenser EL406 and liquid handling software (Biotek). Plates were then incubated at 37°C in 5% CO2 for 96 h. For rate-of-kill determination, plates were incubated for 24h, 48h, 72h and 96h.
(§3) Plates were subsequently fixed with 4% formaldehyde for 20 min, permeabilised and stained with 5 μgml^-1 Hoechst 33342/ 0.1% Triton/ PBS Thimerosal 20 min. Automated imaging was performed by an Operetta high content imaging system using 20x objective (PerkinElmer). Images were analysed with an algorithm generated in Columbus (PerkinElmer) to segment Vero cell nuclei, Vero cell cytoplasm and parasite nuclei/ kinetoplasts, reporting number of amastigotes per Vero cell, percent infected Vero cells and total number of Vero cells. Compound potencies against T. cruzi parasites were calculated in IDBS Activitybase using percent infected Vero cells and Vero toxicity curves generated using number of host cells. All data was normalised to percent inhibition based on the raw data values for the 100% effect control (16 μM nifurtimox) and the 0% effect control (DMSO) on each plate at each time point. Curve fitting was carried out using a four-parameter equation as previously described. ^2 For rate-of-kill experiments the percent infected cells at each compound concentration was plotted against time.

Data set [3] is described as follows: Human liver microsomal intrinsic clearance. The class given is in vitro ADME.
Data set [4] can be described thus: Kinetic aqueous solubility by CAD. The format is physicochemical. The settings on record: kinetic from dmso stock.
Data set [5] is described as follows: Mouse liver microsomal intrinsic clearance. The format is in vitro ADME.
The target in data set [6] is Tc-CYP51 (Trypanosoma cruzi, UniProt Q7Z1V1). The experiment in a line: T. cruzi sterol 14α-demethylase (CYP51) enzyme assay. The class given is biochemical. As for the experimental part: T. cruzi sterol 14α-demethylase (CYP51) enzyme assay
Chain of Tc-CYP51 (Q7Z1V1 whole entry): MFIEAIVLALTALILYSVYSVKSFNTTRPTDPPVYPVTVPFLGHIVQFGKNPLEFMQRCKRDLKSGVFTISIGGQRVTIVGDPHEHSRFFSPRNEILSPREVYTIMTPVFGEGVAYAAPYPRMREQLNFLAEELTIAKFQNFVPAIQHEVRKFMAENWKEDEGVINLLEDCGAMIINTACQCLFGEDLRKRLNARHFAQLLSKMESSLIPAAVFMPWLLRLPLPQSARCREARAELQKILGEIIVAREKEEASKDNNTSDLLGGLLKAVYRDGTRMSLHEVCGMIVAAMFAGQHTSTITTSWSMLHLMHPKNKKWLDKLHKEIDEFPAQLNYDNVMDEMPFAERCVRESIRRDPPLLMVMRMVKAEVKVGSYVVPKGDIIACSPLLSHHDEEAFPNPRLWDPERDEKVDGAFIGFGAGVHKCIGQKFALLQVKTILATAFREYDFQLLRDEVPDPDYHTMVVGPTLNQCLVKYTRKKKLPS
Potency against T. cruzi CYP51 was determined using a previously described fluorescence assay. Average potency for compound 1 was determined with three experimental replicates. Potencies in Fig.3 are from single experimental replicates. ^5

Data set [7] has as its system host Vero cell. In words: Vero host cell toxicity in the intracellular T. cruzi assay. The format is cell-based. Details: key to Max Effect (Vero): % inhibition; 0% = DMSO control, 100% = 16 μM nifurtimox control. The settings on record: for EC50 / IC50: Chlorocebus sabaeus; for EC50: Vero; for EC50 / Max Effect (Vero) / Hill Slope (Vero) / pEC50 (Vero): individual replicate; for IC50: host Vero cell, read-out: Vero pIC50 (converted). The method, then: as §1, §2, §3

Setting [8] is: kinetic, CAD, read-out: Aqueous solubility.

This is an account of results in PMC12208134, “Structure-activity relationships of 1,5-dihydro-2H-benzo[b][1,4]diazepine-2,4(3H)-diones as inhibitors of Trypanosoma cruzi” (RSC medicinal chemistry, 2025).

What is called chromatographic logD is a lipophilicity value derived from retention on a column. By solubility is commonly meant how much of the substance goes into solution per volume.

Values after ≈ are worked out from the molar mass of the structure shown. Values joined by “and” are separate entries in the source; they are usually repeats but may differ in a detail not shown here. Identical values can stand only once. Like-named read-outs stand apart in the source and are kept apart here. Bounds are passed on as bounds.

Consider `COc1ccc(N2C(=O)C(NC(=O)Nc3ccc(C)cc3)C(=O)Nc3ccccc32)cc1` (stereo not shown) [Compound 4, 1-(1-(4-methoxyphenyl)-2,4-dioxo-2,3,4,5-tetrahydro-1H-benzo[b][1,4]diazepin-3-yl)-3-(p-tolyl)urea], for which, in data set [1], the PFI was found to be 7.8 and the chromatographic logD is 4.8. For the same compound, in data set [2], the IC50 is 1 µM; the “Hill slope (T. cruzi)” value is 5.1 and 2.8 and 7.4 and 2.7 and 3.6 and 0.6 and 4.0 and 2.2; the “Max Effect (T. cruzi)” value was 106 and 89 and 74 and 85 and 86 and 109 and 107; the “pEC50 (T. cruzi)” value was 5.7 and 6.1 and 5.8 and 6.5 and 5.9 and 6.0. Further, the “HLM CLi” value in data set [3] (human liver microsomes) was below 0.4 mL/min/g. For the same compound, the solubility in data set [4] (setting [8]) turned out to be 56 µM (≈ 24.1 µg/mL). For the same compound, the “MLM CLi” value in data set [5] (mouse liver microsomes) worked out at 1.2 mL/min/g. Also, the “Tc CYP51 Hill” value in data set [6] (individual replicate) was 0.9. Also, in data set [6] (individual replicate, read-out: Tc CYP51 Max Effect), the Emax turned out to be 89%. The IC50 in data set [6] (individual replicate, read-out: Tc CYP51 pIC50 (converted)) is 1.58 µM. Moreover, in data set [6] (urea series), the “fold more potent against the parasites than against Tc-CYP51” value was 10 fold. In data set [7], the EC50 is above 50.1 µM; the IC50 is above 50.1 µM; the “Max Effect (Vero)” value was 15 and 26 and 13 and 12 and 17 and 16 and 20 and 4.

Consider `Cc1ccc(NC(=O)NC2C(=O)Nc3ccccc3N(C(C)C)C2=O)cc1` (stereo not shown) [Compound 7, 1-(1-isopropyl-2,4-dioxo-2,3,4,5-tetrahydro-1H-benzo[b][1,4]diazepin-3-yl)-3-(p-tolyl)urea], for which, in data set [1], the PFI worked out at 6.2 and the chromatographic logD was found to be 4.2. Further, in data set [2], the EC50 is 20 µM; the IC50 was 12.6 µM; the “Hill slope (T. cruzi)” value is 2.0 and 0.8 and 3.3 and 2.1; the “Max Effect (T. cruzi)” value was 86 and 58 and 83 and 89. Moreover, the “pEC50 (T. cruzi)” value in data set [2] is 4.9 and 5.0. Besides, the “HLM CLi” value in data set [3] (human liver microsomes) was below 0.4 mL/min/g. In data set [4] (setting [8]), the solubility is 25 µM (≈ 9.16 µg/mL). For the same compound, the “MLM CLi” value in data set [5] (mouse liver microsomes) was determined as 1.8 mL/min/g. In addition, in data set [7], the EC50 is above 50.1 µM; the IC50 was above 50.1 µM; the “Max Effect (Vero)” value was 25 and 30 and 20 and -11.

On to `Cc1ccc(NC(=O)NC2C(=O)Nc3ccccc3N(C3CCOCC3)C2=O)cc1` (stereo not shown) [Compound 8, 1-(2,4-dioxo-1-(tetrahydro-2H-pyran-4-yl)-2,3,4,5-tetrahydro-1H-benzo[b][1,4]diazepin-3-yl)-3-(p-tolyl)urea], for which, in data set [1], the PFI was 5.5 and the chromatographic logD came to 3.5. Also, in data set [2], the Emax was found to be 73%; the EC50 is 10 µM; the IC50 is 12.6 µM; the “Hill slope (T. cruzi)” value is 2.6 and 1.3 and 1.9. For the same compound, in data set [2], the “Max Effect (T. cruzi)” value is 78 and 81; the “pEC50 (T. cruzi)” value was 4.9 and 4.8. Besides, in data set [3] (human liver microsomes), the “HLM CLi” value is below 0.4 mL/min/g. In addition, the solubility in data set [4] (setting [8]) amounted to 380 µM (≈ 155 µg/mL). In addition, in data set [5] (mouse liver microsomes), the “MLM CLi” value was determined as 0.7 mL/min/g. Further, in data set [7], the EC50 is above 50.1 µM; the IC50 is above 50.1 µM; the “Max Effect (Vero)” value was 17 and 36 and -0.637 and 18.

Take `Cc1ccc(NC(=O)NC2CN(c3ccccc3)c3ccccc3NC2=O)cc1` (stereo not shown) [Compound 10, 1-(4-oxo-1-phenyl-2,3,4,5-tetrahydro-1H-benzo[b][1,4]diazepin-3-yl)-3-(p-tolyl)urea]: in data set [1], the PFI is given as 8.7 and the chromatographic logD was determined as 5.7. In data set [2], the Emax was 86%; the IC50 is 7.94 µM; the “Hill slope (T. cruzi)” value is 3.5 and 12.0 and 3.2 and 0.8; the “Max Effect (T. cruzi)” value is 83 and 85. Moreover, the “pEC50 (T. cruzi)” value in data set [2] was 5.0 and 4.9 and 5.3. Besides, in data set [3] (human liver microsomes), the “HLM CLi” value is below 0.4 mL/min/g. In data set [4] (setting [8]), the solubility was 23 µM (≈ 8.89 µg/mL). In addition, the “MLM CLi” value in data set [5] (mouse liver microsomes) worked out at 3.5 mL/min/g. Also, in data set [7], the IC50 is 12.6 µM; the “Hill Slope (Vero)” value is 3.6 and 42.2 and 4.8 and 14.3; the “Max Effect (Vero)” value was 96 and 91 and 95 and 63; the “pEC50 (Vero)” value is 4.7 and 5.2 and 4.6 and 5.3.

Consider `Cc1ccc(NC(=O)NC2CNc3ccccc3N(c3ccccc3)C2=O)cc1` (stereo not shown) [Compound 11, 1-(2-oxo-1-phenyl-2,3,4,5-tetrahydro-1H-benzo[b][1,4]diazepin-3-yl)-3-(p-tolyl)urea], for which, in data set [1], the PFI was found to be 8.4 and the chromatographic logD worked out at 5.4. Besides, in data set [2], the Emax amounted to 67%; the EC50 was 25.1 µM; the IC50 is 25.1 µM; the “Hill slope (T. cruzi)” value was 1.3 and 2.0 and 1.7 and 2.2. Besides, in data set [2], the “Max Effect (T. cruzi)” value is 77 and 75 and 73; the “pEC50 (T. cruzi)” value was found to be 4.7. Further, the “HLM CLi” value in data set [3] (human liver microsomes) was below 0.4 mL/min/g. Also, the solubility in data set [4] (setting [8]) was below 1 µM. Further, the “MLM CLi” value in data set [5] (mouse liver microsomes) was 4.0 mL/min/g. Moreover, in data set [7], the EC50 was above 50.1 µM; the IC50 is above 50.1 µM; the “Max Effect (Vero)” value is 20 and 21 and 9 and 10.

`Cc1ccc(NC(=O)NC2COc3ccccc3N(c3ccccc3)C2=O)cc1` (stereo not shown) [Compound 13, 1-(4-oxo-5-phenyl-2,3,4,5-tetrahydrobenzo[b][1,4]oxazepin-3-yl)-3-(p-tolyl)urea]: in data set [1], the PFI came out at 9.1 and the chromatographic logD is 6.1. Also, in data set [2], the IC50 is 25.1 µM; the “Hill slope (T. cruzi)” value is 2.6 and 8.4 and 3.4 and 2.9 and 1.5; the “Max Effect (T. cruzi)” value was 84 and 89 and 94 and 80 and 46; the “pEC50 (T. cruzi)” value was 4.6 and 4.8 and 4.7 and 4.5 and < 4.3. Besides, in data set [3] (human liver microsomes), the “HLM CLi” value was below 0.4 mL/min/g. The solubility in data set [4] (setting [8]) came out at 27 µM (≈ 10.5 µg/mL). For the same compound, the “MLM CLi” value in data set [5] (mouse liver microsomes) amounted to 4.9 mL/min/g. In data set [7], the EC50 was 39.8 µM; the IC50 was 50.1 µM; the “Hill Slope (Vero)” value is 12.0 and 13.9 and 15.1 and 6.4; the “Max Effect (Vero)” value is 80 and 67 and 70 and 76 and 15 and 5.57. Moreover, the “pEC50 (Vero)” value in data set [7] was 4.3 and < 4.3.

As to `COc1ccc(CN2C(=O)C(N)C(=O)N(c3ccccc3)c3c(F)cccc32)cc1` (stereo not shown) [Compound 21, 3-amino-6-fluoro-1-(4-methoxybenzyl)-5-phenyl-1,5-dihydro-2H-benzo[b][1,4]diazepine-2,4(3H)-dione], in data set [1], the PFI was determined as 7.3 and the chromatographic logD was determined as 4.3. In addition, in data set [2], the Emax is 81%; the IC50 is 1.26 µM; the “Hill slope (T. cruzi)” value was 13.4 and 21.5 and 12.3 and 1.4 and 2.3 and 17.2; the “Max Effect (T. cruzi)” value is 88 and 90 and 85. The “pEC50 (T. cruzi)” value in data set [2] is 5.8 and 6.3 and 5.7. Also, the “HLM CLi” value in data set [3] (human, microsomes) is below 0.4 mL/min/g. In data set [4], this compound registered a solubility above 217 µM. The “MLM CLi” value in data set [5] (mouse, microsomes) came to 9.0 mL/min/g. Besides, in data set [7], the EC50 is above 50.1 µM; the IC50 was above 50.1 µM; the “Max Effect (Vero)” value was -0.364 and 17 and 0.947 and 18 and 21 and 12.

Take `COc1ccc(CN2C(=O)CC(=O)N(c3ccc(OC)cc3)c3ccccc32)cc1` [Compound 23, 1-(4-methoxybenzyl)-5-(4-methoxyphenyl)-1,5-dihydro-2H-benzo[b][1,4]diazepine-2,4(3H)-dione]: in data set [1], the PFI is given as 8.1 and the chromatographic logD was found to be 5.1. Also, in data set [2], the EC50 was above 50.1 µM; the IC50 was above 50.1 µM; the “Max Effect (T. cruzi)” value is 39 and 11 and 27 and 29. In addition, the “HLM CLi” value in data set [3] (human, microsomes) is above 37 mL/min/g. In data set [4], this compound gave a solubility of 175 µM (≈ 70.4 µg/mL). Further, in data set [5] (mouse, microsomes), the “MLM CLi” value worked out at 80 mL/min/g. Besides, in data set [7], the EC50 was above 50.1 µM; the IC50 is above 50.1 µM; the “Max Effect (Vero)” value was 2.11 and 2.25 and 31 and 32.
